These are literature values, as cited in patent US6730664B1, “Formulations for parenteral use of estramustine phosphate and sulfoalkyl ether cyclodextrins” (Pharmacia Italia S.p.A., priority 1999, dated 2004).

For the data set the following is noted: patients, slow intravenous injection or bolus, 300 mg/day.

As to `C[C@]12CC[C@@H]3c4ccc(OC(=O)N(CCCl)CCCl)cc4CC[C@H]3[C@@H]1CC[C@@H]2OP(=O)(O)O` [estramustine phosphate, Estramustine phosphate], the “side effects at the peripheral intravenous injection sites” value was “thrombophlebitis and local irritations”.
